Source: patent US20160310454A1, “LIVER X RECEPTOR AGONISTS IN THE TREATMENT OF EMPHYSEMA” (priority 2013, published 2016)
Structures can show the parent of a compound that is named as a salt.

Assays:
[1] = system: murine disease models of atherosclerosis; conditions: mouse, in vivo; cited from earlier work
[2] = system: mouse macrophages (bone marrow derived, ABCA1 fl/fl WT) treated with 5% CSE; test: Mouse macrophages treated with 5% CSE with or without LXR agonist (RT-PCR, Western blot, zymography); format: cell-based; conditions: bone marrow derived macrophages, 5% CSE, LXR agonist 10 μM
Experimental: To prepare cigarette (CSE), the smoke from one cigarette (1.1 mg of nicotine, 15 mg of tar) was passed through 25 mls of phosphate buffered saline (PBS) (Mercer et al., 2004). The pH of the extracted solution was adjusted to 7.4 and then filtered (Mercer et al., 2004). CSE was added to the media at concentrations up to 5% (vol/vol) (Mercer et al., 2004).
In these experiments both mouse peritoneal and mouse bone marrow derived macrophages (BMdM) were utilized. Mouse peritoneal macrophages were isolated from peritoneal cavities of 3% thioglycolate injected mice on the 5th day from injection. To compare expression of genes in vitro and in vivo peritoneal macrophages were isolated from mice exposed to room air and cigarette smoke. For in vitro analysis cells were seeded on culture plates for 24 h and then treated with CSE. For in vivo analysis cells were collected from peritoneal cavity and mRNA was directly isolated. Mouse BMdMs were obtained from the following mice: ABCA1 fl/fl in a C57/BL6 background. Briefly, mice were first sacrificed by CO2 asphyxiation followed by cervical dislocation. After sacrificing the mouse the legs were amputated and the excess muscle tissue was removed so as to completely expose the femur and tibia, which were cleaned carefully. These samples were left in sterile PBS for the duration of the procedure. The cavity bones were then flushed with 10 ml of PBS using 26G needle. The obtained cells were then counted (usually 100-150 million cells per mouse) and centrifuged for 5 min at 2600 rpm. Hematopoietic cells can be separated by plastic adhesion; therefore the cells were incubated in petri dishes containing DMEM culture media and supplemented with 10% FBS and 1% antibiotics). Non-adherent progenitor cells were then collected after 2 hours of incubation in culture media and then seeded at a concentration of 4 million cells/ml in fresh culture media, supplemented with L-cell conditioned media containing macrophage colony stimulating factor (M-CSF) at a concentration of 20%. Approximately after 7-10 days of plating the cells become fully differentiated into macrophages and were ready for subsequent experiments. After treatment the culture supernatants, proteins, and total RNA were collected for analysis. […]
Total RNA was extracted from specimens of lung tissue 0.3 cm^3 in size with the use of the RNeasy kit (Qiagen, Germantown, Md.) (Goldklang et al., 2012). The RNA was then further processed to obtain cDNA, which was used for Real Time (RT) PCR analysis. TaqMan gene expression assays (Applied Biosystems, Carlsbad, Calif.) were performed to assess gene-transcript levels with the use of an ABI Prism 7900HT Sequence Detection System (Applera, Foster City, Calif.) (Goldklang et al., 2012). The following primers were used to check the respective gene expression: ABCA1 (Hs01059118_m1), ABCG1 (Hs00245154_m1), MMP-9 (Mm00442991_m1), IL-1β (Mm00434227_g1), TNF-α (Mm00443260_g1) and GAPDH (4352932E) from TaqMan Gene Expression Assays, Applied Biosystems, CA. β-actin was used as a control since it is a housekeeping gene.
The lungs of mice (-10 mg) were homogenized in 1 ml of Radioimmunoprecipitation assay (RIPA) buffer, and centrifuged at 14,000 g for 10 min. The protein concentration of each sample was measured using a Bradford reagent. The required amount of each sample was then used for western blot analysis, so that the concentration was equal for all samples. Proteins were first separated on the basis of molecular weight via sodium dodecyl sulphate polyacrylamide gel electrophoresis (SDS-PAGE). The same gel was then transferred onto a nitro cellulose membrane with the help of electric current (or electroblotting) that transfers the protein from polyacrylamide gel to the membrane. This membrane was then incubated in the solution containing primary antibodies, specific for the proteins of interest, ABCA1 and ABCG1, followed by the use of a secondary antibody that allowed the detection of protein by chemiluminescent. […]

[3] = system: alveolar macrophages; conditions: in vitro; cited from earlier work

## CON(C)C(=O)CC[C@@H](C)[C@H]1CC[C@H]2[C@@H]3C[C@H](O)[C@@H]4C[C@H](O)CC[C@]4(C)[C@H]3CC[C@]12C [hypocholamide]
[1]
  cholesterol level in serum and liver: lowers
  development of atherosclerosis: inhibits

## O=C(O)Cc1cccc(OCCCN(Cc2cccc(C(F)(F)F)c2Cl)CC(c2ccccc2)c2ccccc2)c1 [GW3965, 3-[3-[N-(2-Chloro-3-trifluoromethylbenzyl)-(2,2-diphenylethyl)amino]propyloxy]phenylacetic acid hydrochloride]
[2]
  MMP9 expression (mRNA) after smoke exposure: able to block
[3]
  CXC10, CCL5, and IL-10 production: anti-inflammatory effects
  production of TNFα, IL-1β, or CXCL8: did not significantly suppress
[1]
  cholesterol level in serum and liver: lowers
  development of atherosclerosis: inhibits
